From patent US20210179586A1, “SOLID STATE FORMS OF BRANAPLAM AND THEIR PREPARATION” (TEVA PHARMACEUTICALS INTERNATIONAL GMBH, priority 2018, published 2021) come the findings set out here.

Counter-ions that a name gives are not always drawn.

The nature of data set [1]: Solid state (polymorphic) stability of crystalline forms on storage, humidity, heat, pressure or grinding. It counts as physicochemical. The settings on record: for stability (conversion to any other solid state form): 'stable' as defined in b57: less than 20% conversion at 60% RH/RT or 75% RH/40° C. for at least 1 month, or at 80-100% RH 7 days, 100° C. 30 minutes, 3 Ton 1 minute, strong grinding. How it is done: As used herein the term “stable” in relation to crystalline Branaplam and salts thereof refers to less than 20%, less than 10%, less than 5%, less than 2%, less than 1%, or less than 0.5% conversion of crystalline Branaplam and salts thereof to any other solid state form of Branaplam when kept in storage for long term stability e.g. 60% RH/RT or 75% RH/40° C. for at least 1 month. Alternatively, crystalline Branaplam and salts thereof are stable when exposed to high humidity e.g. 80-100% RH for 7 days, high temperature e.g. 100° C. for 30 minutes, high mass pressure e.g. 3 Ton for 1 minute or upon strong grinding.

The nature of data set [2]: Hygroscopicity: water absorption at 80% RH for 24 hours at RT, e.g. by TGA. It counts as physicochemical. The following applies: 'non-hygroscopic' as defined in b56: less than 0.2% (w/w) absorption of water at 80% RH for 24 hours at RT. How it is done: As used herein the term non-hygroscopic in relation to crystalline Branaplam and salts thereof refers to less than 0.2% (w/w) absorption of water by the crystalline Branaplam, when exposed to 80% relative humidity (“RH”) for 24 hours at room temperature (“RT”), as determined, for example, by TGA.

Consider `CC1(C)CC(Oc2ccc(-c3ccc(-c4cn[nH]c4)cc3O)nn2)CC(C)(C)N1` [Branaplam Form B1, Branaplam], for which the “stability (conversion to any other solid state form)” value in data set [1] is listed as “stable”.

`CC1(C)CC(Oc2ccc(-c3ccc(-c4cn[nH]c4)cc3O)nn2)CC(C)(C)N1` [Branaplam hydrochloride Form C1, Branaplam hydrochloride]: the “stability (conversion to any other solid state form)” value in data set [1] (hydrochloride) is “surprisingly stable”. The hygroscopicity entry in data set [2] was “non-hygroscopic”.

Consider `CC1(C)CC(Oc2ccc(-c3ccc(-c4cn[nH]c4)cc3O)nn2)CC(C)(C)N1` [Branaplam hydrochloride Form C3, Branaplam hydrochloride], for which the “stability upon heating and humidity” value in data set [1] (heating and humidity, b57 gives e.g. 100° C. for 30 minutes, 80-100% RH for 7 days) was “stable upon heating and humidity”.
